Experimental data reported in US20100190794A1, “Herbicidally Active Composition” (BASF SE, priority 2007, published 2010).

Columns and labels:
[1] = test system: LOLMU; test: greenhouse test, pre-emergence treatment; type: in vivo, Lolium multiflorum
Text: (§1) The culture containers used were plastic pots containing loamy sand with approximately 3.0% of humus as substrate. The seeds of the test plants were sown separately for each species.
(§2) For the pre-emergence treatment, the active compounds, suspended or emulsified in water, were applied directly after sowing by means of finely distributing nozzles. The containers were irrigated gently to promote germination and growth and subsequently covered with transparent plastic hoods until the plants had rooted. This cover caused uniform germination of the test plants unless this was adversely affected by the active compounds.
(§3) Depending on the species, the plants were kept at 10-25° C. and 20-35° C., respectively. The test period extended over 2 to 4 weeks. During this time, the plants were tended and their response to the individual treatments was evaluated.
(§4) Evaluation was carried out using a scale from 0 to 100. 100 means no emergence of the plants, or complete destruction of at least the above-ground parts, and 0 means no damage or normal course of growth. Good herbicidal activity is given at values of at least 70, and very good herbicidal activity is given at values of at least 85.
(§5) The respective stated components A and B, and if appropriate, C were formulated as a 5% by weight or 10% by weight strength emulsion concentrate or a commercially available formulation of component B was used and, with addition of the amount of solvent system, introduced into the spray liquor used for applying the active compound. In the examples, the solvent used was water.
(§6) The test period extended over 20 or 21 days. During this time, the plants were tended, and their reactions to the treatment with active compound was monitored.
(§7) What was evaluated was the damage by the chemical compositions using a scale of from 0 to 100%, in comparison to the untreated control plants. 0 means no damage, and 100 means complete destruction of the plants.
(§8) In the examples below, using the method of S. R. Colby (1967) “Calculating synergistic and antagonistic responses of herbicide combinations”, Weeds 15, p. 22 ff., the value E, which is expected if the activity of the individual active compounds is only additive, was calculated.
(§9) where X=percent activity using active compound A at an application rate a; Y=percent activity using active compound B at an application rate b; E=expected activity (in %) by A+B at application rates a+b.
(§10) If the value found in experiments is higher than the value E calculated according to Colby, a synergistic effect is present.

[2] = test system: ALOMY; test: greenhouse test, pre-emergence treatment; type: in vivo, Alopecurus myosuroides
Text: as §1, §2, §3, §4, §5, §6, §7, §8, §9, §10

[3] = test system: LAMPU; test: greenhouse test, pre-emergence treatment; type: in vivo, Lamium purpureum; settings: 32 g/ha a.s., Use Example 21
Text: as §1, §2, §3, §4, §5, §6, §7, §8, §9, §10

[4] = test system: APESV; test: greenhouse test, pre-emergence treatment; type: in vivo, Apera spica-venti; settings: 32 g/ha a.s., Use Example 21
Text: as §1, §2, §3, §4, §5, §6, §7, §8, §9, §10

[5] = test system: SETVI; test: greenhouse test, post-emergence treatment; type: in vivo, Setaria viridis; settings: 125 g/ha a.s., Use Example 18
Procedure: as §1
(§11) For the post-emergence treatment, the test plants were grown to a plant height of from 3 to 15 cm, depending on the plant habit, and only then treated with the active compounds which had been suspended or emulsified in water. To this end, the test plants were either sown directly and grown in the same containers, or they were first grown separately as seedlings and transplanted into the test containers a few days prior to treatment.
as §3, §4, §5, §6, §7, §8, §9, §10

[6] = test system: DIGSA; test: greenhouse test, post-emergence treatment; type: in vivo, Digitaria sanguinalis; settings: 125 g/ha a.s., Use Example 18
Procedure: as §1, §11, §3
as §4, with “85. […]” for “85.”
as §6
What was evaluated was the damage by the chemical compositions using a scale of from 0 to 100%, in comparison to the untreated control plants. […]
In the examples below, using the method of S. R. Colby (1967) “Calculating synergistic and antagonistic responses of herbicide combinations”, Weeds 15, p. 22 ff., the value E, which is expected if the activity of the individual active compounds is only additive, was calculated. […]
as §10

CC(C)N(C(=O)COc1nnc(C(F)(F)F)s1)c1ccc(F)cc1 [Flufenacet, reference compound]
Herbicidal action in % after 20 days against LOLMU ([1]; 32 g/ha a.s., Use Example 21): 65% | Herbicidal action in % after 20 days against LOLMU ([1]; 62.5 g/ha a.s., Use Example 13): 40% | Herbicidal action in % after 20 days against LOLMU ([1]; 125 g/ha a.s., Use Example 13): 70% | Herbicidal action in % after 20 days against ALOMY ([2]; 32 g/ha a.s., Use Example 21): 70% | Herbicidal action in % after 20 days against ALOMY ([2]; 62.5 g/ha a.s., Use Example 13): 75% | Herbicidal action in % after 20 days against ALOMY ([2]; 125 g/ha a.s., Use Example 13): 90% | Herbicidal action in % after 20 days against LAMPU [3]: 20% | Herbicidal action in % after 20 days against APESV [4]: 95% | Herbicidal action in % after 20 days against SETVI [5]: 70% | Herbicidal action in % after 20 days against DIGSA [6]: 75%
